Data taken from US8604087B2, “Composition for treating or preventing amyloid-related diseases comprising 4-O-methylhonokiol” (priority 2008, dated 2013).

Assays:
[1] = target: acetylcholinesterase (Homo sapiens, UniProt P22303); assay: Inhibition of acetylcholinesterase activity by honokiol and 4-O-methylhonokiol (modified Ellman's method); type: biochemical; conditions: for IC50: 5 minutes of reaction at 25° C., pH 8.0; for inhibition at 0.01 µM: concentration 10 nM; for inhibition at 0.1 µM: concentration 100 nM
acetylcholinesterase, sequence (P22303 32-614, species assumed): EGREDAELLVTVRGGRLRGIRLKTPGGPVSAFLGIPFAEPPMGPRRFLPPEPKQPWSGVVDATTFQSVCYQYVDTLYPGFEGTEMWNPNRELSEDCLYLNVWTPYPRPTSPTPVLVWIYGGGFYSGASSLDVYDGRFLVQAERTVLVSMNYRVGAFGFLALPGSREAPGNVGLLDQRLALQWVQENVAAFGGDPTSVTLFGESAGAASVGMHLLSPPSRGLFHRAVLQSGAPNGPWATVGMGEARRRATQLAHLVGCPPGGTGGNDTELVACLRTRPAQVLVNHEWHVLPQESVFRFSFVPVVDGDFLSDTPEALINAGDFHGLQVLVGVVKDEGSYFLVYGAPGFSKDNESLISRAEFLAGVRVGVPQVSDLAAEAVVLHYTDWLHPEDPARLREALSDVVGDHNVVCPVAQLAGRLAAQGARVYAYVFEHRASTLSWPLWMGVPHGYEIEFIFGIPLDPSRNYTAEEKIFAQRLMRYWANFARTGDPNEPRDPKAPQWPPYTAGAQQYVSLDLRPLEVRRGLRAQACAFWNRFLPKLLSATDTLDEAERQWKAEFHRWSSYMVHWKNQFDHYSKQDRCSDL
Method: Acetylcholinesterase activity was analyzed by the modified Ellman's method [Ellman G. L., et al., Biochem. Pharmacol. 7, 88-95, 1961]. After adding 50 mM phosphate buffer (30 μL, pH 8.0) to a 96-well plate, different concentrations of 4-O-methylhonokiol or honokiol was added, 10 μL per well, and acetylcholinesterase was added, 10 μL per well. Then, 50 mM phosphate buffer (50 μL, pH 8.0) containing 0.5 mM acetylthiocholine iodide and 1 mM 5,5′-dithiobis(2-nitrobenzoic acid) was added as a substrate for the enzyme. After 5 minutes of reaction at 25° C., absorbance was measured at 412 nm. The inhibition of acetylcholinesterase activity was calculated by the following equation. Measurement was made 3 times. Inhibition of acetylcholinesterase activity (%)=[…]
ODb: absorbance of untreated reaction solution at 412 nm;
ODs: absorbance of treated reaction solution at 412 nm; and
ODc: absorbance of control at 412 nm.

[2] = system: scopolamine-induced impairment of memory of mice; assay: Passive avoidance test for evaluating explicit memory; type: in vivo; conditions: for Improvement: step-through latency
Method: In order to test the effect of 4-O-methylhonokiol on the scopolamine-induced impairment of memory of mice, experiment was performed as follows based on the passive avoidance test animal model described in the literature [Korea Health Research Association, Guidelines for the Testing of Functional Health Foods, 663-701, 2004; Rho et al., Biol. Pharm. Bull., 2005].
A passive avoidance instrument consisting of two chambers separated by a guillotine door was used as the experimental apparatus. One chamber was an illuminated chamber made of transparent acryl boards (30×30×30 cm) and the other was a dark chamber made of black acryl boards (same dimensions). The floor of the dark chamber was equipped with a grid made of aluminum pieces separated by a regular spacing. The grid was connected to an apparatus for delivering electric shocks to the feet of the test animal. A mouse was put into the illuminated chamber and the guillotine door was opened so that the mouse could enter the dark chamber. The acquisition trials were repeated 3 times. On the third run, immediately after the mouse entered the dark chamber, an electric shock was delivered through the aluminum grid (0.1 mA, 5 seconds). Memory test was performed 24 hours after the acquisition trials. The mouse was put into the illuminated chamber, the guillotine door was opened, and the time taken for the mouse to enter the dark chamber was measured (step-through latency). A longer time means better learning ability and memory. 10 mice were tested for each group.

[3] = system: scopolamine-induced impairment of learning ability of mice; assay: Water maze test for evaluating spatial learning ability; type: in vivo, male ICR mice; conditions: for Improvement: escape distance
Method: In order to test the effect of 4-O-methylhonokiol on the scopolamine-induced impairment of learning ability of mice, experiment was performed as follows based on the water maze test animal model described in the literature [Korea Health Research Association, Guidelines for the Testing of Functional Health Foods, 663-701, 2004; Widy-Tyszkiewicz et al., Biol. Pharm. Bull., 2002]. 5-6 weeks old male ICR mice (20-28 g; Dae Han Biolink, Korea) were raised under controlled lighting (12-hour light-dark cycle) and temperature (22±2° C.) conditions. They were grouped (n=10) and given free access to food and water, in a cage. The mice were accustomed for a week before performing the test.
A round pool 180 cm in diameter and 50 cm in height was filled with water (22±3° C.) to 30 cm in depth. A transparent acryl resin platform (diameter 12 cm) was placed 1.5 cm below the surface of the water. The mice were trained for 6 days, 180 seconds a day (acquisition test). On day 7, retention test was carried out. The mice were forced to swim for 60 seconds by removing the platform. All the behaviors of the mice were recorded using a video camera. Time and distance were measured until the mice climbed onto the platform.
4-O-methylhonokiol (0.5, 1 and 1.5 mg/kg) was dissolved in drinking water and orally administered to the mice, for a week. The comparison group was treated with scopolamine only, and the control group was not treated with any substance.

[4] = system: Amyloid-β 1-42; assay: Inhibition of amyloid-β 1-42 production in mouse brain cortex and hippocampus (amyloid beta 1-42 assay kit); type: in vivo; conditions: for Improvement: production amount
Method: (§1) After the behavioral pharmacological experiments, the brain cortex and hippocampus were separated from the brain of the mouse, homogenized with RO-PREP protein extraction solution, and centrifuged at 4° C., at 15,000 rpm, for 2 hours. The protein quantity of the supernatant was analyzed with a Bio-Rad protein analysis kit (Bio-Rad). Amyloid-β 1-42 were quantitated using an amyloid beta 1-42 assay kit (Immuno-Biological, Japan).
The protein extract (100 μL) obtained from the brain cortex or hippocampus was put in a coated 96-well plate and incubated at 4° C. overnight. After washing with washing buffer and adding labeled antibody solution, the mixture was incubated at 4° C. for 1 hour in the dark. After washing again and adding chromogen, the mixture was incubated at room temperature for 30 minutes in the dark. Then, after adding stop solution, absorbance was measured at 450 nm. Measurement was made 3 times.

[5] = target: T1, Acetylcholinesterase (Mus musculus, UniProt P21836); assay: Acetylcholinesterase activity in mouse brain cortex and hippocampus after the behavioral experiments (modified Ellman's method); type: in vivo; parameters: Enzyme activity: unit not given beside the values; conditions: for Improvement: enzyme activity
T1 construct: the brain cortex and hippocampus were separated from the brain of the mouse, homogenized with RO-PREP protein extraction solution; from tissue; host or cells: mouse brain cortex and hippocampus
T1 sequence (P21836 32-614): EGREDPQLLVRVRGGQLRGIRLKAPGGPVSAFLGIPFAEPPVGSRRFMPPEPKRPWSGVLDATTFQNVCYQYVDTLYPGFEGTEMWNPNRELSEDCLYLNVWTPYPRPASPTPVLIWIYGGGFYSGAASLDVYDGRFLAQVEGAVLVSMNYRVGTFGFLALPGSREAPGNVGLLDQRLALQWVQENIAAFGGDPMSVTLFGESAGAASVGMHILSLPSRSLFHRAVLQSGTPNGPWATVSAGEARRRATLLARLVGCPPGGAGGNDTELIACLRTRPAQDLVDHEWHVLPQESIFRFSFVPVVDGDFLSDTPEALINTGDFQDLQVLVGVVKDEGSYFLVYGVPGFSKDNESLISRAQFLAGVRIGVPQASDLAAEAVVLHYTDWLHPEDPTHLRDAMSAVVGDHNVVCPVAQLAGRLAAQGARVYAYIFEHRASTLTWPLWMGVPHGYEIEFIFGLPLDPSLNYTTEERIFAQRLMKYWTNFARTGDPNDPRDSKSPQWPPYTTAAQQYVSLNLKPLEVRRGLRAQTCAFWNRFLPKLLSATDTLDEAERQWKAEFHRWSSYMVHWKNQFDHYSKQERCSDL
Method: as §1, with “solution (iNtRON Biotechnology),” for “solution,”, “Acetylcholinesterase activity was analyzed by the modified Ellman's method.” for “Amyloid-β 1-42 were quantitated using an amyloid beta 1-42 assay kit (Immuno-Biological, Japan).”
Cell lysate was put in a 96-well plate, 10 μL per well. After adding reaction buffer [190 μL, 0.01% DTNB, 0.02% acetylthiocholine and 0.1 mM isoOMPA in 50 mM Tris-HCl (pH 8.0, 0.1 M NaCl, 20 mM MgCl2)], measurement was made at 37° C., at 405 nm, for 5 minutes. After 10 minutes of reaction, measurement was made again at the same wavelength. After adding different concentrations of acetylcholinesterase and treating with standard buffer [0.01% DTNB and 0.02% 0.1 mM isoOMPA in 50 mM Tris-HCl (pH 8.0, 0.1 M NaCl, 20 mM MgCl2)], measurement was made at 37° C., at 405 nm, for 5 minutes. Activity was calculated from the difference of absorbance at the first and second measurements.

[6] = scopolamine 1 mg/kg + 4-O-methylhonokiol 0.5 mg/kg
[7] = scopolamine 1 mg/kg + 4-O-methylhonokiol 1 mg/kg
[8] = scopolamine 1 mg/kg + 4-O-methylhonokiol 1.5 mg/kg
[9] = brain cortex, scopolamine 1 mg/kg + 4-O-methylhonokiol 0.5 mg/kg
[10] = brain cortex, scopolamine 1 mg/kg + 4-O-methylhonokiol 1 mg/kg
[11] = brain cortex, scopolamine 1 mg/kg + 4-O-methylhonokiol 1.5 mg/kg
[12] = hippocampus, scopolamine 1 mg/kg + 4-O-methylhonokiol 0.5 mg/kg
[13] = hippocampus, scopolamine 1 mg/kg + 4-O-methylhonokiol 1 mg/kg
[14] = hippocampus, scopolamine 1 mg/kg + 4-O-methylhonokiol 1.5 mg/kg

Molecule `C=CCc1ccc(O)c(-c2ccc(O)c(CC=C)c2)c1` [Honokiol] has an IC50 [1] of 250 nM, an inhibition at 0.01 µM [1] of 17% and an inhibition at 0.1 µM [1] of 43%. It also gave an inhibition at 1 µM ([1]; concentration 1000 nM) of 74%.
In the case of `CN1[C@@H]2C[C@@H](OC(=O)[C@H](CO)c3ccccc3)C[C@H]1[C@@H]1O[C@@H]12` [scopolamine, Scopolamine, reference compound], the Step-through latency ([2]; comparison group, scopolamine 1 mg/kg only (control group 34.3)) is reported as 14.6 s and the Escape distance ([3]; comparison group, scopolamine 1 mg/kg only (control group 232)) is reported as 884 cm.
For β-amyloid [reference compound], the Production amount ([4]; amyloid-β 1-42, brain cortex, comparison group, β-amyloid 1 mg/kg only (control group 23.5)) was 28.1 and the Production amount ([4]; amyloid-β 1-42, hippocampus, comparison group, β-amyloid 1 mg/kg only (control group 16.2)) was 25.1.
With `C=CCc1ccc(O)c(-c2ccc(OC)c(CC=C)c2)c1` [4-O-methylhonokiol] the Production amount ([4]; amyloid-β 1-42, brain cortex, β-amyloid 1 mg/kg + 4-O-methylhonokiol 0.5 mg/kg) was 26.8, the Production amount ([4]; amyloid-β 1-42, brain cortex, β-amyloid 1 mg/kg + 4-O-methylhonokiol 1 mg/kg) was 24.3 and the Production amount ([4]; amyloid-β 1-42, brain cortex, β-amyloid 1 mg/kg + 4-O-methylhonokiol 1.5 mg/kg) was 23.1. It also gave a Production amount ([4]; amyloid-β 1-42, hippocampus, β-amyloid 1 mg/kg + 4-O-methylhonokiol 0.5 mg/kg) of 22.7, a Production amount ([4]; amyloid-β 1-42, hippocampus, β-amyloid 1 mg/kg + 4-O-methylhonokiol 1 mg/kg) of 18.2 and a Production amount ([4]; amyloid-β 1-42, hippocampus, β-amyloid 1 mg/kg + 4-O-methylhonokiol 1.5 mg/kg) of 16.5. The Improvement ([4]; brain cortex, β-amyloid 1 mg/kg + 4-O-methylhonokiol 0.5 mg/kg) was 28.3%, the Improvement ([4]; brain cortex, β-amyloid 1 mg/kg + 4-O-methylhonokiol 1 mg/kg) was 82.6% and the Improvement ([4]; brain cortex, β-amyloid 1 mg/kg + 4-O-methylhonokiol 1.5 mg/kg) was 100%. For the same molecule, the Improvement ([4]; hippocampus, β-amyloid 1 mg/kg + 4-O-methylhonokiol 0.5 mg/kg) was 33.3%, the Improvement ([4]; hippocampus, β-amyloid 1 mg/kg + 4-O-methylhonokiol 1 mg/kg) was 77.8% and the Improvement ([4]; hippocampus, β-amyloid 1 mg/kg + 4-O-methylhonokiol 1.5 mg/kg) was 95.6%. It also gave a Step-through latency ([2]; scopolamine 1 mg/kg + 4-O-methylhonokiol 0.5 mg/kg, 24 hours after acquisition trials) of 21.9 s, a Step-through latency ([2]; scopolamine 1 mg/kg + 4-O-methylhonokiol 1 mg/kg, 24 hours after acquisition trials) of 28.3 s and a Step-through latency ([2]; scopolamine 1 mg/kg + 4-O-methylhonokiol 1.5 mg/kg, 24 hours after acquisition trials) of 33.5 s. The Improvement [2, 6] was 37.1%, the Improvement [2, 7] was 70% and the Improvement [2, 8] was 95%. The IC50 [1] was 1.2 nM, the inhibition at 0.001 µM ([1]; concentration 1 nM) was 47% and the inhibition at 0.01 µM [1] was 68%. For the same molecule, the inhibition at 0.1 µM [1] was 78%, the “times better inhibition ability of acetylcholinesterase activity than honokiol” value ([1]; ratio of IC50 values) was “about 200 times” and the Improvement [3, 6] was 48.8%. For the same molecule, the Improvement [3, 7] was 88.6%, the Improvement [3, 8] was 91.8% and the Escape distance ([3]; scopolamine 1 mg/kg + 4-O-methylhonokiol 0.5 mg/kg oral in drinking water for a week, mice) was 566 cm. The Escape distance ([3]; scopolamine 1 mg/kg + 4-O-methylhonokiol 1 mg/kg oral in drinking water for a week, mice) was 305 cm, the Escape distance ([3]; scopolamine 1 mg/kg + 4-O-methylhonokiol 1.5 mg/kg oral in drinking water for a week, mice) was 284 cm and the Enzyme activity [5, 9] was 30.2. It also gave an Enzyme activity [5, 10] of 24.1, an Enzyme activity [5, 11] of 19.1 and an Improvement [5, 9] of 42.8%. For the same molecule, the Improvement [5, 10] was 70.3%, the Improvement [5, 11] was 92.8% and the Improvement [5, 12] was 72.7%. The Improvement [5, 13] was 93.2%, the Improvement [5, 14] was 97.7% and the Enzyme activity [5, 12] was 14.1. The Enzyme activity [5, 13] was 13.2 and the Enzyme activity [5, 14] was 13.
